How the values were obtained:
Type in all cases: physicochemical
[1] = evaluation of various acid addition salts
From the text: Evaluation of various acid addition salts of 2-{3-[4-(2-t-butyl-6-trifluoromethyl-4-pyrimidyl)-1-piperazinyl)propylthio}-4-5 pyrimidinol

[2] = solubility tests of the substances
From the text: It has a selectivity, Ki D2/Ki D3of 120 (cf. WO 96/02519). The compound is therefore useful for treating disorders which respond to dopamine D3ligands, eg. for treating disorders of the central nervous system, in particular schizophrenia, depressions, neuroses and psychoses. It is additionally useful for treating sleep disturbances and nausea and as antihistamine.
(§1) Furthermore, the fumarate is more soluble in polar solvents such as C1-C6-alkanols than the free base. Because of the altered solubility characteristics, it can also be purified more simply while avoiding physiologically unacceptable solvents.

[3] = stability against oxidative processes; conditions: compared to the free base
From the text: as §1

Compound: Hydrochloride
- Observation: stability of the compound in the acidic medium ([1]; aqueous solution of the salt is highly acidic): acidic; the compound is instable in

Compound: CC(C)(C)c1nc(N2CCN(CCCSc3nccc(O)n3)CC2)cc(C(F)(F)F)n1.O=C(O)/C=C/C(=O)O [Fumarate, fumaric acid salt of 2-{3-[4-(2-t-butyl-6-trifluoromethyl-4-pyrimidinyl)-1-piperazinyl]propylthio}-4-pyrimidinol]
- solubility in water ([2]; compared to that of the free base): substantially higher solubility
- solubility in polar solvents such as C1-C6-alkanols ([2]; compared to the free base): more soluble
- stability against oxidative processes [3]: higher stability
- Observation: hygroscopicity [1]: non-hygroscopic salt with definite

Compound: Methane sulfonate
- Observation: crystals are deliquescent and dissolve within [1]: deliquescent and dissolve within 3 h
